From article PMC10374582, “A BAHD-type acyltransferase concludes the biosynthetic pathway of non-bitter glycoalkaloids in ripe tomato fruit” (Nature Communications, 2023)

What was measured:
SlGAME36 = molecular target: T1, SlGAME36 (Solanum lycopersicum, UniProt A0A3Q7HQH1); assay: LC-MS steady-state kinetics; assay type: biochemical; conditions: pH 7.5, 30 °C
T1 construct: gene LOC101247356; pET28/pET28b, E. coli BL21 (DE3), Ni-NTA purified His-tagged protein
Excerpt: (§1) LC-MS steady-state kinetics on SlGAME36 | higher catalytic efficiency with hydroxytomatine (native substrate from tomato | hydroxysolamargine (SGA substrate from eggplant | preferred specificity toward acetyl CoA over butyryl CoA

[1] = tested on: C[C@@H]1CNC2(O[C@H]3C[C@H]4[C@@H]5CC[C@H]6C[C@@H](O[C@@H]7O[C@H](CO)[C@H](O[C@@H]8O[C@H](CO)[C@@H](O)[C@H](O[C@@H]9OC[C@@H](O)[C@H](O)[C@H]9O)[C@H]8O[C@@H]8O[C@H](CO)[C@@H](O)[C@H](O)[C@H]8O)[C@H](O)[C@H]7O)CC[C@]6(C)[C@H]5CC[C@]4(C)[C@H]3[C@@H]2C)C(O)C1; assay: LC-MS steady-state kinetics; assay type: biochemical, Solanum lycopersicum; conditions: 500 µM acetyl CoA, pH 7.5, 30 °C
Excerpt: as §1

SlGAME40 = molecular target: T2, SlGAME40 (Solanum lycopersicum, UniProt P10967); assay: LC-MS product detection, sequential one-tube assay; assay type: biochemical; conditions: acetoxytomatine formed in situ by GAME31 and GAME36; α-ketoglutarate, ascorbate, Fe2+; pH 7.5, 30 °C
T2 construct: gene ACO3; purified recombinant from E. coli

CCCC(=O)SCCNC(=O)CCNC(=O)[C@H](O)C(C)(C)COP(=O)(O)OP(=O)(O)OC[C@H]1O[C@@H](n2cnc3c(N)ncnc32)[C@H](O)[C@@H]1OP(=O)(O)O [butyryl CoA]
Km (SlGAME36; 100 µM hydroxytomatine): 60.4 µM

SlGAME36 (Solanum lycopersicum)
Km [1]: 14.43 µM
kcat [1]: 60.25 s⁻¹

CC(=O)SCCNC(=O)CCNC(=O)[C@H](O)C(C)(C)COP(=O)(O)OP(=O)(O)OC[C@H]1O[C@@H](n2cnc3c(N)ncnc32)[C@H](O)[C@@H]1OP(=O)(O)O [acetyl CoA]
Km (SlGAME36; 100 µM hydroxytomatine): 24.2 µM

CC(=O)OC1C[C@H](C)CNC12O[C@H]1C[C@H]3[C@@H]4CC[C@H]5C[C@@H](O[C@@H]6O[C@H](CO)[C@H](O[C@@H]7O[C@H](CO)[C@@H](O)[C@H](O[C@@H]8OC[C@@H](O)[C@H](O)[C@H]8O)[C@H]7O[C@@H]7O[C@H](CO)[C@@H](O)[C@H](O)[C@H]7O)[C@H](O)[C@H]6O)CC[C@]5(C)[C@H]4CC[C@]3(C)[C@H]1[C@@H]2C (stereo partly drawn) [acetoxytomatine]
LC-MS product detection, sequential one-tube assay (SlGAME40): Sequential assays produced explicitly the expected pathway intermediates

hydroxysolamargine
Km (SlGAME36; 500 µM acetyl CoA): 7.89 µM
